Experimental data published in a melting point compilation (Tetko et al.; mined from patent text by program, amines drawn as free bases though some values may be those of a salt).

Row | SMILES | melting point [°C]
1 | Cc1c(-c2ccco2)c(N2CC[C@H](N(C)C)C2)c2oc(C3CC3)nc2c1C#N | 158 to 159
2 | Ic1ccc2c(c1)ncn2-c1cccc(-c2ccccn2)c1 | 157 to 158
3 | O=C(O)CNC=C(Nc1cc(Cl)cc(Cl)c1)[N+](=O)[O-] | 207
4 | COc1cc(Nc2c(C#N)cnc3cc(-c4ccc(C=O)o4)ccc23)c(Cl)cc1Cl | > 250
5 | CCCCn1ccc(N2CCC(c3ccc(C(C)(C)O)cc3F)CC2)c(Cl)c1=O | 150
6 | CCCCN(Cc1ccc(C#N)cc1Cl)c1c(NC(C)(C)C)c(=O)c1=O | 133 to 134
7 | COc1cc(C)nc(NC(=O)NS(=O)(=O)c2cccc3c2C(Cl)=CC3)n1 | 168 to 172
8 | CCN1c2ncccc2C(=O)N(C)c2ccc(-c3cc[nH]c3C(C)=O)nc21 | > 80
9 | CCc1nsc(N=C(Cl)N(C)C)c1C#N | 95 to 97
10 | CCOC(=O)c1ncn2c1C(C)N=C(c1ccccc1)c1cc(C#C[Si](C)(C)C)ccc1-2 (stereo not drawn) | 160 to 162
11 | COC(=O)CN(CCNC(=O)OC(C)(C)C)C(=O)Cc1cc2ccc(C)nc2[nH]c1=O | 98 to 100
12 | CCO[PH](=O)OP(=O)(CNC(C)(c1ccccc1)c1cc(C(C)(C)C)c(O)c(C(C)(C)C)c1)OCC (stereo not drawn) | 95 to 110
13 | Nc1ccc(C(=O)OC2CCN(Cc3ccccc3)CC2)cn1 | 135 to 136
14 | CNC(=O)c1ccc(C=CC(=O)NCC(=O)N(C)c2ccc(Cl)c(COc3cccc4ccc(C)nc34)c2)cc1 | 221 to 228
15 | Cc1nc(C)c(-c2ccnc(Nc3ccc(N4CCCC4)cc3)n2)s1 | 192 to 193
16 | CCOC(=O)C(CCC(=O)O)(CCC(=O)O)C(=O)OCC | 120
17 | CCOC(=O)Cc1c(C)n(Cc2cccc(OC)c2)c2ccc(OC)cc12 | 88 to 90
18 | CC(=O)Nc1ccc(-c2cc(-c3c(-c4ccccn4)nc4ccccn34)ccn2)cc1 | 133
19 | CC(C)(C)OC(=O)N1CC(CCl)c2c1ccc1ccc(C#N)cc21 (stereo not drawn) | 138 to 140
20 | CCC1SC(=O)N(Cc2ccc(C(=O)O)cc2)N=C1c1ccc(O)c(O)c1 (stereo not drawn) | 106
21 | NC(=S)Nc1ccc(Br)cc1 | 188 to 189
22 | CC(O)(c1ccc(F)cc1)c1ccc(-c2ccncc2)cc1 (stereo not drawn) | 166 to 170
23 | COc1ccc(C(=O)CN2CCN(C(c3ccccc3)c3ccccc3)CC2)c(OC)c1OC | 119
24 | COCCNC(=O)c1ccc(C(=O)NS(=O)(=O)c2ccccc2)cn1 | 190 to 191
25 | COc1cccc2nc(C(F)(F)F)oc(=O)c12 | 88 to 91

Row | SMILES | melting point [°C]
26 | CCC(=O)Nc1ccc(C(=O)c2nc(-c3cccc(C(=O)O)c3)c3ccccn23)cc1OC | 145
27 | CC(C)Cc1nn(C)c(=O)c2c(SCCCO)n(Cc3ccccc3)cc12 | 91 to 92
28 | O=S(=O)(CCCCl)Nc1cccc(COc2cccc3cccnc23)c1 | 142 to 143
29 | COc1ccc(-c2cc3cc(F)c(F)cc3[nH]2)cc1NCc1ccc([N+](=O)[O-])c(O)c1 | 170 to 171
30 | CC(C)(C)c1ccc(S(=O)(=O)N2CCCC2=O)cc1 | 131 to 133
31 | CCn1c(=O)c2c(nc(/C=C/c3cccc(OC)c3OC(C)=O)n2C)n(CC)c1=O | 202 to 203
32 | Cc1cc(Cl)ccc1N=C1NCCN1 | 137 to 138
33 | Cc1cc(-c2nc3cccnn3c2-c2ccnc(NC(=O)NCC(C)C)c2)ccc1F | 213 to 214
34 | CCCCC(CNc1nc(C)c(OC(=O)OCC)c(C)n1)c1ccccc1 (stereo not drawn) | 105 to 107
35 | COc1ccc(C(=Nc2c(Cl)cncc2Cl)NCc2ccccc2)cc1OC1CCCC1 | 129 to 133
36 | CN1C(=O)C(CC(O)C#N)c2ccccc21 (stereo not drawn) | 136 to 138
37 | Nc1ccccc1CCc1n[nH]c2c1c(=O)n(-c1ccccc1)c1ncccc21 | 289 to 291
38 | C1=C(c2cccs2)CCN(CCCSc2ccncc2)C1 | 86 to 87
39 | COc1ccc(/C=C/C2=CCN(Cc3c[nH]c4ncccc34)CC2)cc1 | 201 to 204
40 | Nc1nc2ccccc2c2sc(C=Cc3ccccc3)nc12 | 239 to 241
41 | CNC1(C2CCCCC2)C(=O)Nc2ccc(Cl)cc21 (stereo not drawn) | 195 to 198
42 | O=C(O)C1=CC2(CCSCC2)Oc2ccc([N+](=O)[O-])cc21 | 259 to 261
43 | Cc1cc(O)cc(-c2nn(CC#N)cc2-c2cc(NC[C@H](C)O)nc(-c3cccnc3)n2)c1 | 236
44 | OCC(O)(Cc1ccc(Cl)cc1Cl)c1cccnc1 (stereo not drawn) | 158 to 159
45 | Fc1ccc(-c2cn3c(n2)SCC3)cc1 | 116 to 118
46 | CC(C)C1CC(=O)C(C(=O)Nc2ccc(Cl)c(Cl)c2)C(=O)C1 (stereo not drawn) | 138
47 | Cc1nc2ccccn2c1-c1csc(Nc2ccc(C(=O)Nc3ccccc3N)cc2)n1 | 161 to 165
48 | Nc1nc(N2CCOCC2)c2ncn(C3CC(F)C(CO)O3)c2n1 (stereo not drawn) | 165 to 167
49 | COc1ccc(C(C)=Cc2ccncc2)c2c1OC(C)(C)C2 | 85 to 87
50 | CCCc1cc(C(=O)O)cc(CCC)c1OCCCCCCc1cccc(OC)c1OC | 61 to 65

Row | SMILES | melting point [°C]
51 | N#Cc1ccc(OCc2ccncc2)cc1OC(C(=O)O)c1ccccc1 (racemic) | 218 to 220
52 | CSc1c(C(=O)O)ccc(C)c1C | 118 to 120
53 | C#CCN(Cc1cc2c(=O)[nH]c(COS(C)(=O)=O)nc2cc1Cl)c1ccc(C(=O)OC(C)(C)C)cc1 | 178 to 181
54 | Cc1ccc(C(CCN2CCCC2)c2ncc[nH]2)cc1 (stereo not drawn) | 125 to 127
55 | Nc1nc(N)c2ncn(COCCOCCO)c2n1 | 76 to 82
56 | CC(C)N(C(=O)CN1C(=O)C(NC(=O)Nc2ccccc2)C(=O)N(c2ccccc2)c2ccccc21)c1ccccc1 (stereo not drawn) | 230 to 235
57 | N#Cc1ccc(C(=O)c2ccccc2S)cc1 | 98 to 100
58 | COc1ccccc1N1CCN(CCCNC(=O)c2cccc3c(=O)c(C)c(C4(C)CCCCC4)oc23)CC1 | 120 to 124
59 | CS(=O)(=O)c1ccc(-c2[nH]c3ccc(Cl)cc3c2-c2ccc(S(C)(=O)=O)cc2)cc1 | 173 to 175
60 | COC(=O)COc1cc(C(F)(F)F)cc(C(F)(F)F)c1 | 65 to 67
61 | N#Cc1csc(CN2C(=O)C3(COc4cc5c(cc43)OCO5)c3ccccc32)c1 (stereo not drawn) | 207 to 209
62 | COC(=O)CCNC(=O)COc1ccc2c(c1)CC(NS(=O)(=O)c1ccc(Cl)cc1)C2 (stereo not drawn) | 126 to 128
63 | Cc1ccc(S(=O)(=O)NC(=O)CC(=O)N2CCCC2C(=O)N2CCN(C3(N4CCCC4)N=CC=C(N4CCCC4)N3)CC2)cc1 (single isomer, unassigned; (-)) | 170
64 | Nc1cccc(-c2ccc(CCN3CCN(CCc4ccccc4)CC3)cc2)n1 | 111 to 113
65 | CCOC(=O)c1c(C)nc2sc(C)nc2c1NCCCN(C)C | 53 to 54
66 | CC(c1cccnc1)C(O)(Cn1cncn1)c1ccc(F)cc1F (stereo not drawn) | 113 to 114
67 | COc1ccc(N2CCN(CCC3OCCc4cc([Si](C)(C)C)ccc43)CC2)cc1 (stereo not drawn) | 78 to 80
68 | CCOC1(C(N)=O)c2ccccc2S(=O)(=O)N1Cc1ccc(Br)cc1F (stereo not drawn) | 175 to 177
69 | COc1ccc(N2CCOCC2)c2sc(C(=O)NC3CCCCC3=O)nc12 (stereo not drawn) | 165
70 | Cc1csc(NC(=O)c2ccc(CN3CCN(c4nc(C)cs4)C3=O)cc2)n1 | 197 to 198
71 | CCn1c([N+](=O)[O-])cnc1C=Cc1ccccc1 | 231 to 233
72 | CC1C(=O)NC(c2ccc(NC(=O)CCl)cc2)c2ccccc21 (stereo not drawn) | 238 to 239
73 | CCOCCn1cc2c(C3C(=O)Nc4ccc(Cl)cc43)nc(NCCc3cccnc3)nc2n1 (stereo not drawn) | 224 to 226
74 | O=[N+]([O-])c1ccc(OCc2ccc(F)cc2)cc1F | 90 to 91
75 | CC1(C)Oc2ccc(C(=O)CO)cc2[C@H](NC(=O)c2cc(F)cc(F)c2)[C@H]1O | 179

Row | SMILES | melting point [°C]
76 | COc1ccc(C(=O)C2Cc3ccc(O)c(O)c3C2=O)cc1 (stereo not drawn) | 191 to 193
77 | CON=CNC(=O)c1ccc(C=NO)cc1C | 88 to 91
78 | Cn1ccnc1Sc1c(Cl)cccc1Cl | 113 to 115
79 | COC1CC(NC(=O)C(F)(F)F)C(OC)C(C)O1 (stereo not drawn) | 55 to 60
80 | CC(=O)NC[C@H]1CN(c2ccc3c(c2)CC(C)N3C(=O)CO)C(=O)O1 (stereo partly drawn) | 130 to 133
81 | CCCCCCCCOc1cc(OC)ccc1O | 36 to 38
82 | Cc1ccc(O)cc1NC(=O)CC12CC3CC(CC(C3)C1)C2 | 255 to 256
83 | COc1cc(/C=C/C(=O)/C=C/c2ccc(OC(F)(F)F)cc2)ccc1O | 93 to 95
84 | N#Cc1ccc(-c2nc(COc3ccc(CCCn4ccnc4)cc3)co2)cc1 | 98 to 99
85 | O=C(O)c1cc(Cl)n2cnnc2c1 | 249 to 251
86 | OC(=S)c1cc(C(F)(F)F)c(Cl)cc1Cl | 112 to 114
87 | CN(C)C(=NS(=O)(=O)c1ccc(Cl)cc1)N1CC(c2ccccc2)C(c2ccc(Cl)cc2)=N1 (stereo not drawn) | 182
88 | CCOC(=O)CCC(CC(=O)c1ccc(N)cc1)C(=O)OCC (racemic) | 58 to 61
89 | N#Cc1cc(-c2ccccc2)[nH]c1Sc1ccccc1N | 159 to 160
90 | CC(=O)ONC(=N)c1ccc(-c2nc(C)c(C(=O)NC(C)C(O)(Cn3cncn3)c3ccc(F)cc3F)s2)cc1 (stereo not drawn) | 146 to 147
91 | COC(=O)c1ccc(OCCNC(=O)C2Cc3ccccc3N2S(=O)(=O)c2ccc(-c3cccc(C(F)(F)F)c3)cc2)c(F)c1 (stereo not drawn) | 65 to 70
92 | CC12CCC=CC1=CCC1C2CCC2(C)C(c3cccnc3)=CCC12 (stereo not drawn) | 110 to 112
93 | CC(C)C(OCCc1ccc(-c2ccc(Cl)cc2)cc1)C(=O)O (stereo not drawn) | 91 to 92
94 | O=C1CCC(N2C(=O)c3cccc(NCc4cccnc4)c3C2=O)C(=O)N1 (stereo not drawn) | 231 to 233
95 | CN(N=Cc1cnc[nH]1)C(=O)c1[nH]c2ccccc2c1-c1ccccc1 | 248 to 250
96 | COCCO[C@@H]1c2ccc3c(nc(C)n3C)c2O[C@H](c2ccccc2)[C@H]1O | 163
97 | CCCC(CCC)C(=O)NCC(=O)NCCCCCNC(=O)n1cc(F)c(=O)[nH]c1=O | 117 to 118
98 | CCOC(=O)c1nccn1Cc1ccccc1[N+](=O)[O-] | 107 to 111
